Key:
[1] = target: RAC-alpha serine/threonine-protein kinase (Homo sapiens, UniProt P31749); assay: Inhibition of Protein kinase B alpha
[2] = target: cAMP-dependent protein kinase A (Bos taurus, UniProt P00515+P00517+P05131+P31322); assay: Inhibition of bovine protein kinase A (PKA); assay type: protein-complex assay
[3] = Half life in mice plasma; assay type: ADME, organism-based; settings: mouse

Sequence of RAC-alpha serine/threonine-protein kinase (P31749 whole entry): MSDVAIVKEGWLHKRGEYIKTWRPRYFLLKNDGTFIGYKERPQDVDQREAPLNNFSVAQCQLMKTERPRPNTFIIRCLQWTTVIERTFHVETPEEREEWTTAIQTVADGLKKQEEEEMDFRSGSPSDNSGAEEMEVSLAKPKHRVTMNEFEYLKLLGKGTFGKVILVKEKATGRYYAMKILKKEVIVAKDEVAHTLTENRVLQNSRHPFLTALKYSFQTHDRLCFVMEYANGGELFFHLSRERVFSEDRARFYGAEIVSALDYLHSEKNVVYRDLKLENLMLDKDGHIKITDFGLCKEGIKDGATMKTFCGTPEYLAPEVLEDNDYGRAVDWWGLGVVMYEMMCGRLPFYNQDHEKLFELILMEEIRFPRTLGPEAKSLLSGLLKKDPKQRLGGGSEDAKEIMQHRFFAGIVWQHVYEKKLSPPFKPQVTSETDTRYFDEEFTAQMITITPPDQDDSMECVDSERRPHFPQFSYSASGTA

Row | SMILES | IC50 [1] [µM] | IC50 [2] [µM] | half-life [3] [h]
1 | COc1ccc(O)c(C(=O)c2ccc(C(=O)N[C@@H]3CCCNCC3NC(=O)c3ccncc3)cc2)c1F.Cl.Cl (stereo not given in full) | – | – | 69
2 | COc1ccc(O)c(C(=O)c2ccc(C(=O)O[C@@H]3CCCNCC3NC(=O)c3ccncc3)cc2)c1F.Cl.Cl (stereo not given in full) | – | – | < 0.0167
3 | COc1ccc(O)c(C(=O)c2ccc(CO[C@@H]3CCCNCC3NC(=O)c3ccncc3)cc2)c1F.Cl.Cl (stereo not given in full) | 0.355 | – | 29

Second part, the compound after the results:

Row | IC50 [1] [µM] | IC50 [2] [µM] | half-life [3] [h] | SMILES
4 | 0.16 | – | – | COc1ccc(O)c(C(=O)c2ccc(/C=C/[C@@H]3CCCNC[C@H]3NC(=O)c3ccncc3)cc2)c1F
5 | 25 | 45 | – | COc1ccc(O)c(C(=O)c2ccc(NC[C@@H]3CCCNCC3NC(=O)c3ccncc3)cc2)c1F (stereo not given in full)
6 | 3 | 0.8 | 161 | COc1ccc(O)c(C(=O)c2ccc(CN[C@@H]3CCCNC[C@H]3NC(=O)c3ccncc3)cc2)c1F.Cl

From ChEMBL document CHEMBL1149095, “Structure-based optimization of novel azepane derivatives as PKB inhibitors” (J Med Chem, 2004)
